Experimental data: US20080155704A1, “Methods and Compositions for Determining in vivo Activity of BiP” (King's College London, priority 2006, published 2008)

Experiments:
[1] = test system: monocyte-derived dendritic cells; test: Surface expression of phenotypic markers on monocyte-derived dendritic cells (immunofluorescence, flow cytometry); assay type: cell-based, human
Procedure: Purified monocytes (>85% monocytes)(1.5.10^6/flask)(Corning Costar, High Wycombe, UK) were incubated in 5 ml of tissue culture medium (TCM)(RPMI 1640 medium (Sigma, Poole, UK) supplemented with 10% heat-inactivated foetal calf serum (FCS)(Life Technologies, Paisley, UK). iDC were generated using granulocyte macrophage—colony stimulating factor (GM-CSF) (1000 U/ml)(Novartis Research Institute, Vienna, Austria) and IL-4 (500 U/ml) (R&D Systems, Oxford, UK). Monocytes were cultured for 3 or 7 days with cytokines, either alone or in the presence of rhuBiP (20 μg/ml). Mature DC were generated by addition of 500 ng/ml lipopolysaccharide (LPS) for the final 2 days of culture.
Immunofluorescent staining was performed as follows when required. Cells were suspended in immunofluorescent buffer (IF) (PBS/0.1% BSA/0.05% azide) washed and incubated for 10 mins on ice with normal human serum. After washing twice in IF buffer, saturating concentrations of fluorescein isothiocyanate (FITC)-, phycoerythrin (PE) or peridium chlorophyll (Per-CP)-conjugated monoclonal antibodies (mAb) recognizing human CD14, CD86, CD80, HLA-DR, CD11c, CD1a, CD83, CD40 and CD85j, (all from Becton Dickinson/PharMingen, Oxford, UK) were added singly or in combination, as stated in the text, to cells for 20 mins on ice. Cells were then washed twice in IF buffer and analysed. Isotype controls, IgG1 and IgG2a (Becton Dickinson, Oxford, UK) were used in parallel.
Purified monocytes were cultured with and without BiP for three days (early DC/early DC(BiP)) or 7 days with GM-CSF and IL-4 (iDC/iDC(BiP)) or for 7 days with additional LPS for the final 2 days (mDC/mDC(BiP)). *BiP [20 μg/ml] was added at the same time as the cytokines. (a) and (b): Results are expressed as mean and standard error (mean ±SE) of the % positive cells from 4 or 7 different experiments, respectively.
Table A: Surface expression of phenotypic markers: Purified monocytes were differentiated into immature dendritic cells (iDC) with GM-CSF and IL-4 for 7d in the presence or absence of BiP (20 μg/ml). LPS (500 ng/ml) was added for the final 2d to give mature DC(mDC). Cell surface expression of molecules was measured by immunofluorescence and flow cytometry. Results are expressed as mean and standard deviation (mean ±SD) of the mean fluorescent intensity (MFI) from 7 different experiments:
Purified MO (>85% monocytes)(1.5.106/flask)(Corning Costar, High Wycombe, UK) were incubated in 5 ml of tissue culture medium (TCM)(RPMI 1640 medium (Sigma, Poole, UK) supplemented with 10% heat-inactivated foetal calf serum (FCS)(Life Technologies, Paisley, UK). iDC were generated by culturing MO with granulocyte macrophage-colony stimulating factor (GM-CSF) (1000 U/ml)(Novartis Research Institute, Vienna, Austria) and IL-4 (500 U/ml) (R&D Systems, Oxford, UK) for 3 or 7d, either alone or in the presence of rhuBiP (20 μg/ml). Cytokines and BiP were replenished every 2d. Mature DC were generated by addition of LPS (500 ng/ml) for the final 2d of a 7d culture.
Immunofluorescent staining was performed, as described previously (39), on DC harvested at day 7, T cells after 4 days co-culture with DC. Saturating concentrations of fluorescein isothiocyanate (FITC)-, phycoerythrin (PE) or peridium chlorophyll (Per-CP)-conjugated mAb were added recognizing CD14, CD86, CD80, HLA-DR, CD11c, CD1a, CD83, CD85j, IL-10 receptor; purity of the negatively selected MO and T cells was checked using CD3, CD4, CD14, CD20 and CD57 (all from Becton Dickinson/PharMingen (BD), Oxford, UK). Intracellular staining was carried out following fixation of cells with 1% paraformaldehyde for 5 minutes. Cells were then washed with immunofluorescence buffer (PBS/0.1% BSA/0.05% azide) containing 0.3% saponin. 0.3% saponin was then present in all solutions thereafter. CD152/CTLA-4 (BD, Oxford UK) and IDO (Santa Cruz, Autogen Bioclear, UK) were intracellular stains. Isotype controls, IgG1 and IgG2a (BD, Oxford, UK) were used in parallel. […]

IL-8 = IL-8 in supernatants of PBMC from rheumatoid arthritis patients (MSD multicytokine array); assay type: cell-based, human; settings: PBMC of RA patients on methotrexate, BiP 20 μg/ml, 96 h, 16 paired samples, p=0.0001
Procedure: Peripheral blood mononuclear cells (PBMC) were separated from heparinised blood taken from patients with rheumatoid arthritis being treated with methotrexate. PBMC were either left unstimulated or stimulated with BiP (20 μg/ml). Supernatants were taken at 96 h, aliquoted and stored at −80° C. until required.
Supernatants from unstimulated or BiP stimulated cultures were analysed in a multicytokine array (MSD). The results from 16 paired samples are shown as median and 95 percent confidence limits.

[2] = Early iDC(BiP): 3 days GM-CSF and IL-4, BiP 20 μg/ml, mean ±SE
[3] = iDC(BiP): 7 days GM-CSF and IL-4, BiP 20 μg/ml, mean ±SE
[4] = mDC(BiP), BiP 20 μg/ml, mean fluorescence intensity, up to 7 experiments
[5] = mDC(BiP): 7 days GM-CSF and IL-4, LPS final 2 days, BiP 20 μg/ml, mean ±SE

Q: Which results are given for “BiP: 78 kD endoplasmic reticulum chaperone protein as disclosed in WO 00/21995; recombinant human protein”?
A: % cells CD1a+ [1, 2]: 1 ± 2%; % cells CD11c+ [1, 2]: 81 ± 7%; % cells CD80+ [1, 2]: 36 ± 15%; % cells CD83 [1, 2]: 2. ± 2%; % cells CD86+ [1, 2]: 3 ± 1%; % cells HLA-DR [1, 2]: 31 ± 7%; % cells CD14 ([1]; Early iDC(BiP): monocytes 3 days with GM-CSF and IL-4, BiP 20 μg/ml, mean ±SE): 91 ± 6%; MFI CD11c ([1]; iDC(BiP), BiP 20 μg/ml, mean fluorescence intensity, up to 7 experiments): 2246 ± 329; % positive cells CD40+85j+ ([1]; iDC(BiP): 7 days GM-CSF and IL-4, BiP 20 μg/ml): 26±19%; % positive cells CD1a+ [1, 3]: 83 ± 9%; % positive cells CD11c+ [1, 3]: 97 ± 2%; % positive cells CD14+ [1, 3]: 59 ± 22%; % positive cells CD40+ [1, 3]: 28 ± 20%; % positive cells CD80+ [1, 3]: 88 ± 7%; % positive cells CD83+ [1, 3]: 10 ± 5%; % positive cells CD86+ [1, 3]: 31 ± 11%; % positive cells CD210+ [1, 3]: 12 ± 9%; % positive cells HLA-DR+ [1, 3]: 96 ± 2%; maturation as determined by upregulation of CD83 after addition of LPS ([1]; mDC(BiP) (FIG. 10C)): failed to mature; CD40 expression by mDC(BiP) ([1]; mDC(BiP) versus mDC): no difference in CD40 expression; MFI CD1a [1, 4]: 685 ± 145; MFI CD14 [1, 4]: 366 ± 216; MFI CD80 [1, 4]: 395 ± 31; MFI CD86 [1, 4]: 112 ± 14; MFI HLA-DR [1, 4]: 1660 ± 167; cell surface expression of CD85j (ILT2) ([1]; mDC(BiP), n=4): 87.2±3.5%; % positive cells CD1a+ [1, 5]: 76 ± 14%; % positive cells CD11c+ [1, 5]: 94 ± 5%; % positive cells CD14+ [1, 5]: 57 ± 22%; % positive cells CD40+ [1, 5]: 32 ± 24%; % positive cells CD40+85j+ [1, 5]: 29 ± 23%; % positive cells CD80+ [1, 5]: 91 ± 6%; % positive cells CD83+ [1, 5]: 10 ± 4%; % positive cells CD86+ [1, 5]: 26 ± 9%; % positive cells CD210+ [1, 5]: 19 ± 17%; % positive cells HLA-DR+ [1, 5]: 96 ± 1%; CD14 and CD86 expression on DC cultured in the presence of BiP ([1]; mature DC, dose-dependent 0.5-20 μg/ml BiP (FIG. 10B)): sustained CD14 expression and failed to upregulate CD86; IL-8 production (IL-8): significantly less IL-8
